# Reference: patent US20230023559A1, “ARYLMETHYLENE HETEROCYCLIC COMPOUNDS AS KV1.3 POTASSIUM SHAKER CHANNEL BLOCKERS” (D. E. Shaw Research, LLC, priority 2019, published 2023)
# Biological target: T1, Kv1.3 potassium channel (Homo sapiens, UniProt P22001)
# T1 construct: expressed in transfected cells
# Test: Kv1.3 potassium channel blocker activity, automated whole-cell patch clamp (Patchliner)
# Format: cell-based
# Conditions: CHO-K1 cells stably expressing Kv1.3; whole cell current inhibition; read-out: Kv1.3_IC50
# Method: The assay described below is used to evaluate the disclosed compound's activities as Kv1.3 potassium channel blockers.
# CHO-K1 cells stably expressing Kv1.3 were grown in DMEM containing 10% heat-inactivated FBS, 1 mM Sodium Pyruvate, 2 mM L-Glutamine and G418 (500 μg/ml).
# All compounds were dissolved in DMSO at 30 mM.
# The currents were evoked by applying 100 ms depolarizing pulses from −90 mV (holding potential) to +40 mV were applied with 0.1 Hz frequency. […] 10 second breaks were used between pulse trains (see Table A below).
# Data were sampled at 10 kHz without filtering. Passive leak currents were subtracted online using a P/4 procedure (HEKA Elektronik Dr. Schulze GmbH). […] Total compound incubation time before the next pulse train was not longer than 10 seconds. Peak current inhibition was observed during compound equilibration.
# T1 sequence (P22001 whole entry): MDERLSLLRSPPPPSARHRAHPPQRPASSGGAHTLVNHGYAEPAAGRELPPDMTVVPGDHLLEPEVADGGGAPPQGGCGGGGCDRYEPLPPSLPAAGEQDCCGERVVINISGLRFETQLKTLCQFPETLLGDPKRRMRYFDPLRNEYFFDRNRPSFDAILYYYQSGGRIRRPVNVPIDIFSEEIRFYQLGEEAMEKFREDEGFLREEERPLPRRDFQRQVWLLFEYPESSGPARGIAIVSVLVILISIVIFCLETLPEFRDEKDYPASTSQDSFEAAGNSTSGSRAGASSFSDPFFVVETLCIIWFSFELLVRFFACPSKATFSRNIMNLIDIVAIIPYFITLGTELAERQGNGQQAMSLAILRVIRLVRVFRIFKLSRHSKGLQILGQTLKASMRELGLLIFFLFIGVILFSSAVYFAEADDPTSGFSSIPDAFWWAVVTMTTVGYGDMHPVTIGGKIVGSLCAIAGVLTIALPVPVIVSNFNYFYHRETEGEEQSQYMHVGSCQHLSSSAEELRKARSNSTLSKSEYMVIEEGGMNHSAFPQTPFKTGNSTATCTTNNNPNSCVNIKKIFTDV
row,SMILES,IC50
1,"Cc1cc(O)c([C@H](N)C2CCN(C(=O)c3ccc4[nH]c(=O)[nH]c4c3)CC2)cc1Cl [Compound 256, 5-[4-[(R)-amino (5-chloro-2-hydroxy-4-methylphenyl)methyl]piperidine-1-carbonyl]-1,3-dihydro-1,3-benzodiazol-2-one trifluoroacetic acid]",< 500 nM
2,"Cc1cc(O)c([C@H](N)C2CCN(C(=O)c3ccc4oc(=O)[nH]c4c3)CC2)cc1Cl [Compound 258, 5-[4-[(R)-amino(5-chloro-2-hydroxy-4-methylphenyl)methyl]piperidine-1-carbonyl]-3H-1,3-benzoxazol-2-one formic acid]",< 500 nM
3,"Cc1cc(O)c([C@H](N)C2CCN(C(=O)c3ccc4c(c3)CCC(=O)N4)CC2)cc1Cl [Compound 259, 6-[4-[(R)-amino (5-chloro-2-hydroxy-4-methylphenyl)methyl]piperidine-1-carbonyl]-3,4-dihydro-1H-quinolin-2-one trifluoroacetic acid]",< 500 nM
4,"N[C@@H](c1cc(Cl)c(Cl)cc1O)C1CCN(C(=O)C2CNC(=O)O2)CC1 (stereo partly drawn) [Compound 261, 5-[4-[(R)-amino(4,5-dichloro-2-hydroxyphenyl)methyl]piperidine-1-carbonyl]-1,3-oxazolidin-2-one trifluoroacetic acid]",< 500 nM
5,"Cc1cc(O)c([C@H](N)C2CCN(C(=O)c3ccc4c(c3)NC(=O)C4)CC2)cc1Cl [Compound 263, 6-[4-[(R)-amino (5-chloro-2-hydroxy-4-methylphenyl)methyl]piperidine-1-carbonyl]-1,3-dihydroindol-2-one trifluoroacetic acid]",< 500 nM

# Further lines, results first:
row,IC50,SMILES
1,< 500 nM,"Cc1cc(O)c([C@H](N)C2CCN(C(=O)c3ccc4c(c3)OCC(=O)N4)CC2)cc1Cl [Compound 265, 7-[4-[(R)-amino(5-chloro-2-hydroxy-4-methylphenyl)methyl]piperidine-1-carbonyl]-2,4-dihydro-1,4-benzoxazin-3-one trifluoroacetic acid]"
2,< 500 nM,"N[C@@H](c1c(O)cc(Cl)c(Cl)c1F)C1CCN(C(=O)c2c[nH]c(=O)c(Cl)c2)CC1 [Compound 266, 5-[4-[(R)-amino(3,4-dichloro-2-fluoro-6-hydroxyphenyl)methyl]piperidine-1-carbonyl]-3-chloro-1H-pyridin-2-one Trifluoroacetic Acid]"
3,< 500 nM,"Cc1cc(O)c([C@H](N)C2CCN(C(=O)c3ccc4c(c3)CC(=O)N4)CC2)cc1Cl [Compound 267, 5-[4-[(R)-amino (5-chloro-2-hydroxy-4-methylphenyl)methyl]piperidine-1-carbonyl]-1,3-dihydroindol-2-one trifluoroacetic acid]"
4,< 500 nM,"CN1CC(C(=O)N2CCC([C@@H](N)c3cc(Cl)c(Cl)cc3O)CC2)OCC1=O (stereo partly drawn) [Compound 268, 6-[4-[(R)-amino(4,5-dichloro-2-hydroxyphenyl)methyl]piperidine-1-carbonyl]-4-methylmorpholin-3-one trifluoroacetic acid]"
5,< 10000 nM,"Cc1cc(O)c([C@H](N)C2CCN(C(=O)c3ccc4c(c3)NC(=O)CO4)CC2)cc1Cl [Compound 269, 6-[4-[(R)-amino (5-chloro-2-hydroxy-4-methylphenyl)methyl]piperidine-1-carbonyl]-2,4-dihydro-1,4-benzoxazin-3-one]"
6,< 500 nM,"Cc1cc(O)c([C@H](N)C2CCN(C(=O)c3cc(Cl)c(=O)n(C)c3)CC2)cc1Cl [Compound 270, 5-[4-[(R)-amino (5-chloro-2-hydroxy-4-methylphenyl)methyl]piperidine-1-carbonyl]-3-chloro-1-methyl-pyridin-2-one trifluoroacetic acid]"
7,< 10000 nM,"Cc1cc(O)c([C@H](N)C2CCN(C(=O)c3ccc4[nH]c(=O)oc4c3)CC2)cc1Cl [Compound 271, 6-[4-[(R)-amino(5-chloro-2-hydroxy-4-methylphenyl)methyl]piperidine-1-carbonyl]-3H-1,3-benzoxazol-2-one]"
